Among the data in PMC3577903, “Staphylococcus aureus FepA and FepB Proteins Drive Heme Iron Utilization in Escherichia coli” (PLoS ONE, 2013) are Kd values, retold here.

The target of this assay is T1, FepB (FepB-6His, apo-FepB) (Staphylococcus aureus, UniProt Q2G130).
T1 construct: gene SAOUHSC_00326; Tat signal peptide removed; six-histidine tag kept (pET22b NdeI/XhoI); expressed in E. coli; apo form monomeric after gel filtration (heme-loaded form dimeric)
As to the kind of experiment: UV-visible absorbance titration (Soret band […] nm), one-site fit. Format: binding. Particulars: apo-FepB 2.2 µM, 50 mM Tris-HCl pH 8.0, 0.2 M NaCl, room temperature; stoichiometry 0.9; PPIX in DMSO; stoichiometry 0.7.

T1 sequence (Q2G130 entry or part of it): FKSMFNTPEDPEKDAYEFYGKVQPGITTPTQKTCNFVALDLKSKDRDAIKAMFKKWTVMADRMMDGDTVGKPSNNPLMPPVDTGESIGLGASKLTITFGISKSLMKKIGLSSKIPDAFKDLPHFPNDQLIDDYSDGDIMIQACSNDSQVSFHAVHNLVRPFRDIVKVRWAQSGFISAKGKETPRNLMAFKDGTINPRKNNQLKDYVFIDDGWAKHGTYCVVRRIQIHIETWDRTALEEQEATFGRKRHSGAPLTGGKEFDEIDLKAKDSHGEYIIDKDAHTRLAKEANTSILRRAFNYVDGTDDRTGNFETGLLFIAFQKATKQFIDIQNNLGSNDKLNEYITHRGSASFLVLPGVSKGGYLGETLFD

`C=CC1=C(C)c2cc3[nH]c(cc4nc(cc5[nH]c(cc1n2)c(C)c5CCC(=O)O)C(CCC(=O)O)=C4C)c(C)c3C=C` [PPIX]: the Kd is given as 21.1±5,2 nM.
